Where only a bound is given, the exact number is not on record here.

The test system of one experiment is 786-O. Kind of experiment: Cytotoxicity of Auristatin-Peptide-h1F6 conjugates, resazurin assay. Format: cell-based, human. The following applies: for IC50 786-0: Table 4. An excerpt: (§1) The conjugates contain approximately 4 drugs per antibody.
For the next experiment, the system named is LP-1. Described as above. Format: cell-based, human.
Excerpt: as §1

In a further experiment the test system is Caki-1. The description is as above. It is filed as cell-based.
Excerpt: as §1

The subject of experiment [1] is L428. The experiment is described as above. The following applies: for IC50 L428: ~4 drugs/Ab. Format: cell-based.
Excerpt: as §1

The next experiment concerns U251. The description is as above. The following applies: Table 4, ~4 drugs/Ab. Format: cell-based.
Excerpt: as §1

A further experiment relates to UMRC-3. Described as above. Format: cell-based.
Excerpt: as §1

In the next experiment the test system is HCT-116 (CD70−). As to the kind of experiment: Cytotoxicity of Auristatin-Peptide-h1F6 conjugates, CD70- control cell line. Format: cell-based.
Excerpt: as §1

Another experiment concerns Karpas 299. As to the kind of experiment: Cytotoxicity of Auristatin-Peptide-cAC10 conjugates on CD30+ cells. Format: cell-based, human. The following applies: Table 6, ~4 drugs/Ab. The procedure: (§2) Following the procedure described in Example 57, Auristatin-Dipeptide-cAC10 antibody conjugates were evaluated on CD30+ positive cell lines, Karpas 299, L428 and L540cy. In addition, a control conjugate, cAC10-vc-PABC-MMAF, was used. […] The conjugates contain approximately 4 drugs per antibody.
(§3) Following the procedure described as Examples 57 and 58, the activities of Auristatin-Peptide-cAC10 conjugates were evaluated on CD30^+ cells, such as Karpas 299, L428, and L540cy. The activities of Auristatin-Peptide-hBU12 conjugates were evaluated on CD19^+ cells such as Ramos, SUDHL-4, and ARH-77. The activities of Auristatin-Peptide-anti-LIV-1 conjugates were evaluated on LIV-1 positive cell lines MCF-7 and SKOV-3. The activities of Auristatin-Peptide-BR96 conjugates were evaluated on Le^y positive cells H3396, RCA, and L2987. All conjugates contain approximately 4 drugs per antibody.

The subject of a further experiment is L540cy. The experiment is described as above. Format: cell-based, human. Conditions: Table 6, ~4 drugs/Ab. The procedure: as §2, §3
Experiment [2] has as its system L428. The description is as above. Format: cell-based. Conditions: Table 6, ~4 drugs/Ab. The method, then: as §2, §3
The test system of the next experiment is Caki-2. Kind of experiment: Cytotoxicity of Auristatin-Peptide-h1F6 conjugates, resazurin assay. Format: cell-based. The following applies: Table 5; h1F6 conjugates, ~4 drugs/Ab. The procedure:
as §1
Following the procedure described as Examples 57 and 58, Auristatin-Peptide-h1F6 conjugates were evaluated on CD70^+ cell, such as 786-O, Caki-1, Caki-2, and L428. Conjugates contain approximately 4 drugs per antibody.

Where [3] appears, read: Table 4, h1F6 conjugates, ~4 drugs/Ab.
Where [4] appears, read: Table 7, h1F6 conjugates, AF vs MMAF.
Where [5] appears, read: Table 8, h1F6 conjugates, D vs L amino acid in second linker position.
[6] abbreviates: Table 9, h1F6-Drug(4) conjugates, mono- vs dipeptide linker.
Setting [7] is: Table 5, h1F6 conjugates, ~4 drugs/Ab.

With “AF-Isoleucine-Valine-diaminoethane-propionyl-maleimide [AF-Ile-Val]”, the “IC50 786-0” value in the experiment on 786-O (h1F6 conjugates, ~4 drugs/Ab) came out at 3.4 ng/mL. In addition, in the experiment on LP-1 (setting [3]), the “IC50 LP-1” value amounted to 19 ng/mL. Besides, the “IC50 Caki-1” value in the experiment with Caki-1 (setting [3]) is listed as 3.7 ng/mL. In addition, in the experiment with L428 [1] (Table 4, h1F6 conjugates), the “IC50 L428” value amounted to 2.5 ng/mL. Moreover, the “IC50 U251” value in the experiment on U251 turned out to be 44.6 ng/mL. For the same substance, the “IC50 UMRC-3” value in the experiment with UMRC-3 (setting [3]) is given as 19.5 ng/mL. Also, the “IC50 HCT-116 (CD70−)” value in the experiment with HCT-116 (CD70−) (Table 4, ~4 drugs/Ab) is given as >1000 ng/mL.

“AF-Tyrosine-Valine-diaminoethane-propionyl-maleimide [AF-Tyr-Val]”: in the experiment with 786-O (h1F6 conjugates, ~4 drugs/Ab), the “IC50 786-0” value stood at 3.7 ng/mL. Besides, the “IC50 LP-1” value in the experiment with LP-1 (setting [3]) worked out at 34 ng/mL. For the same substance, the “IC50 Caki-1” value in the experiment on Caki-1 (setting [3]) stood at 7.0 ng/mL. The “IC50 L428” value in the experiment with L428 [1] (Table 4, h1F6 conjugates) amounted to 3.0 ng/mL. For the same substance, in the experiment with U251, the “IC50 U251” value was 46.8 ng/mL. Moreover, the “IC50 UMRC-3” value in the experiment with UMRC-3 (setting [3]) is 19.5 ng/mL. In addition, in the experiment with HCT-116 (CD70−) (Table 4, ~4 drugs/Ab), the “IC50 HCT-116 (CD70−)” value was >1000 ng/mL.

For “AF-Phenylglycine-(D)Lysine-diaminoethane-propionyl maleimide [AF-PhenylGly-(D)Lys]”, the “IC50 786-0” value with 786-O (h1F6 conjugates, ~4 drugs/Ab) was determined as 339 ng/mL. Further, the “IC50 LP-1” value in the experiment with LP-1 (setting [3]) was >10,000 ng/mL. For the same substance, the “IC50 Caki-1” value with Caki-1 (setting [3]) is 44 ng/mL. Also, the “IC50 L428” value in the experiment on L428 [1] (Table 4, h1F6 conjugates) came to 275 ng/mL; in the experiment on L428 [2], 2 ng/mL. Also, the “IC50 U251” value with U251 is 98 ng/mL. Moreover, the “IC50 UMRC-3” value in the experiment with UMRC-3 (setting [3]) came to 1096 ng/mL. In the experiment on HCT-116 (CD70−) (Table 4, ~4 drugs/Ab), the “IC50 HCT-116 (CD70−)” value is recorded as >1000 ng/mL. For the same substance, in the experiment with Karpas 299, the “IC50 Karpas 299” value is given as 21 ng/mL. Besides, the “IC50 L540cy” value with L540cy came out at 6 ng/mL.

As to “AF-Methionine-(D)Lysine-diaminoethane-propionyl maleimide [AF-Met-(D)Lys]”, the “IC50 786-0” value in the experiment on 786-O (h1F6 conjugates, ~4 drugs/Ab) stood at 55 ng/mL. The “IC50 786-O” value in the experiment on 786-O (setting [4]), with 786-O (setting [5]) and in the experiment on 786-O (setting [6]) was 12 ng/mL in each case. The “IC50 LP-1” value is recorded as >10,000 ng/mL with LP-1 (setting [3]), >1000 ng/mL in the experiment on LP-1 (setting [4]), >1000 ng/mL with LP-1 (setting [5]) and >1000 ng/mL in the experiment with LP-1 (setting [6]). Moreover, the “IC50 Caki-1” value in the experiment with Caki-1 (setting [3]) stood at 25 ng/mL; in the experiment on Caki-1 (setting [4]), 9 ng/mL; in the experiment on Caki-1 (setting [5]), 9 ng/mL; with Caki-1 (setting [6]), 9 ng/mL. The “IC50 L428” value with L428 [1] (Table 4, h1F6 conjugates) worked out at 1698 ng/mL; in the experiment with L428 [2], 1.5 ng/mL. For the same substance, the “IC50 L-428” value in the experiment with L428 [1] (setting [4]), in the experiment with L428 [1] (setting [5]) and with L428 [1] (setting [6]) was 158 ng/mL each time. Besides, the “IC50 U251” value in the experiment on U251 turned out to be 98 ng/mL. The “IC50 UMRC-3” value is listed as 132 ng/mL with UMRC-3 (setting [3]), 182 ng/mL with UMRC-3 (setting [4]), 182 ng/mL with UMRC-3 (setting [5]) and 182 ng/mL with UMRC-3 (setting [6]). The “IC50 HCT-116 (CD70−)” value in the experiment with HCT-116 (CD70−) (Table 4, ~4 drugs/Ab) is recorded as >1000 ng/mL. Besides, the “IC50 Karpas 299” value with Karpas 299 came to 2 ng/mL. Besides, the “IC50 L540cy” value in the experiment with L540cy stood at 3 ng/mL.

For “AF-β-alanine-(D)Aspartic Acid-diaminoethane-propionyl maleimide [AF-β-Ala-(D)Asp]”, the “IC50 786-0” value with 786-O (h1F6 conjugates, ~4 drugs/Ab) is 525 ng/mL. The “IC50 LP-1” value with LP-1 (setting [3]) is >10,000 ng/mL. Moreover, the “IC50 Caki-1” value in the experiment on Caki-1 (setting [3]) came out at 1585 ng/mL. Further, the “IC50 L428” value with L428 [1] (Table 4, h1F6 conjugates) is recorded as 1096 ng/mL; in the experiment with L428 [2], 0.5 ng/mL. Besides, the “IC50 U251” value with U251 stood at 93 ng/mL. For the same substance, in the experiment on UMRC-3 (setting [3]), the “IC50 UMRC-3” value was 132 ng/mL. Also, in the experiment with HCT-116 (CD70−) (Table 4, ~4 drugs/Ab), the “IC50 HCT-116 (CD70−)” value is recorded as >1000 ng/mL. Also, in the experiment with Karpas 299, the “IC50 Karpas 299” value is recorded as 371 ng/mL. For the same substance, the “IC50 L540cy” value in the experiment with L540cy turned out to be 1.6 ng/mL.

For “MMAF-Methionine-(D)Lysine-diaminoethane-propionyl maleimide [MMAF-Met-(D)Lys]”, the “IC50 786-O” value in the experiment with 786-O (setting [4]) was determined as 10 ng/mL. Further, in the experiment with LP-1 (setting [4]), the “IC50 LP-1” value was >1000 ng/mL. Moreover, in the experiment with Caki-1 (setting [4]), the “IC50 Caki-1” value came to 8 ng/mL. Besides, the “IC50 L-428” value in the experiment with L428 [1] (setting [4]) is 123 ng/mL. In the experiment with UMRC-3 (setting [4]), the “IC50 UMRC-3” value is given as 100 ng/mL.

As for “AF-Asparagine-(D)Aspartic Acid-diaminoethane-propionyl maleimide [AF-Asn-(D)Asp]”, in the experiment on 786-O (setting [7]), the “IC50 786-O” value turned out to be 7 ng/mL. In the experiment on Caki-1 (setting [7]), the “IC50 Caki-1” value is 7 ng/mL. Besides, the “IC50 L428” value in the experiment on L428 [1] (Table 5, h1F6 conjugates) turned out to be 14 ng/mL. The “IC50 HCT-116 (CD70−)” value with HCT-116 (CD70−) (Table 5, ~4 drugs/Ab) is >1000 ng/mL. Further, in the experiment with Caki-2, the “IC50 Caki-2” value is 71 ng/mL.

As for “AF-Isoleucine-Proline-diaminoethane-propionyl maleimide [AF-Ile-Pro]”, the “IC50 786-0” value in the experiment with 786-O (h1F6 conjugates, ~4 drugs/Ab) was found to be 9.8 ng/mL. The “IC50 LP-1” value in the experiment with LP-1 (setting [3]) is 219 ng/mL. The “IC50 Caki-1” value with Caki-1 (setting [3]) came out at 9 ng/mL. Further, the “IC50 L428” value was 5 ng/mL in the experiment on L428 [1] (Table 4, h1F6 conjugates) and 0.1 ng/mL in the experiment with L428 [2]. Further, in the experiment with U251, the “IC50 U251” value amounted to 45 ng/mL. Moreover, the “IC50 UMRC-3” value in the experiment with UMRC-3 (setting [3]) came out at 16 ng/mL. The “IC50 HCT-116 (CD70−)” value in the experiment with HCT-116 (CD70−) (Table 4, ~4 drugs/Ab) is given as >1000 ng/mL. Further, the “IC50 Karpas 299” value in the experiment on Karpas 299 was determined as 0.6 ng/mL. The “IC50 L540cy” value in the experiment with L540cy worked out at 0.7 ng/mL.

The values are drawn from patent US9463252B2, “Auristatin drug linker conjugates” (priority 2008, dated 2016).
